According to patent US20100151104A1, “Preservative System For Beverages Based On Combinations Of Trans-Cinnamic Acid, Lauric Arginate, And Dimethyl Dicarbonate” (priority 2008, published 2010):

Key:
Format in all cases: cell-based
[1] = test system: Brettanomyces bruxellensus; test: Growth in 10% apple juice beverage with combinations of LAE & cinnamic acid; log (QA/Qa+QB/Qb) calculation; settings: for amount of growth (normalized) to control: Cinnamic Acid 0 ppm
Text: (§1) Trans-cinnamic acid and lauric arginate were combined in the following beverage formulation: [table] […] The analysis of the interaction between lauric arginate and cinnamic acid can be refined through use of a mathematical method developed by Voorspuij and Nass (Arch. Int. pharmacodyn. 59:211 1957) (generally accepted among those practiced in the art.) Herein, the interactions between two active substances can be explored. First the quantity (Qa=Molar Cone) of compound A required for an end point (concentration required to stabilize product for 16 weeks) is established. Similarly, the quantity (Qb =Molar cone) of substance B required to establish the same endpoint is established. Thereafter, mixtures of A & B, in quantities QA & Qs are established that also define endpoints. […] If the sum of the ratios for a mixture of A & Bare=1, then the interaction is considered additive. […] Calculation of log (QA/Qa+QB/Qb) for LAE+trans Cinnamic Acid vs Brettanomyces bruzellensus

Brettanomyces nardensis = test: as above; settings: for amount of growth (normalized) to control: Cinnamic Acid 0 ppm
Text: as §1, with “bruzellensus” left out

Saccharomyces cerevsiae = test: as above; settings: for amount of growth (normalized) to control: Cinnamic Acid 0 ppm
Text: as §1, with “[table] • Values reflect amount of growth (normalized) to control (0 ppm LAE & 0 ppm Cinnamic acid) for each pH tested.” for “[table]”, “Saccharomyces […]” for “Brettanomyces bruzellensus”

[2] = test system: seven bio-indicator strains (Zygosaccharomyce baili, Brettanomyces species, Saccharomyces cerevisiae, Paecilomyces lilacinus, Zygosaccharomyces bisporus …); test: Example 2: growth/no growth of seven bio-indicator strains in 4% apple juice beverage, 16 weeks; settings: FIGS. 1a, 1b; stand alone; pH 3.4; 16 weeks at 25° C.
Text: A single preparation of base beverage was employed to prepare each of five tests and consisted of 4% apple juice, 68 g sucrose/L, 52 g glucose/L, 2 g fructose/L prepared in batch water that was formulated to 90 ppm hardness with calcium chloride and magnesium chloride. […] The total combined quantity of sodium malate and malic acid was near constant, but the ratio of malic acid and malate varied slightly given the presence or absence of lauric arginate or cinnamic acid. Where required, lauric arginate or cinnamic acid was supplemented from separately prepared stock solutions. Each of the five tests employed the same bio-indicator organisms; Growth (+) versus no growth (-) established by visual inspection or spectrophotometrically. […] Y3, Zygosaccharomyce baili, Pepsi isolate 906; C-7UP, Brettanomyces species, Pepsi Isolate; Spore, an ascospore preparation of Saccharomyces cerevisiae 99 a Pepsi Isolate; […], Zygosaccharomyces baili, ATCC 60484; Spores, M7, Paecilomyces lilacinus ATCC 90461; […], Zygosaccharomyces bisporus ATCC 52407; Spores, M4, Talaromvces flavus var. flavus ATCC 10512. Samples were incubated for period of 16 weeks at 25° C. in vessels protective against evaporation.

[3] = stand alone, end point = concentration required to stabilize product for 16 weeks

## CCCCCCCCCCCC(=O)N[C@@H](CCCNC(=N)N)C(=O)OCC.Cl [LAE, ethyl-N-lauroyl-L-argniate hydrochloride]
[1]; pH 3.0, LAE 2.5 ppm
  amount of growth (normalized) to control: 97%
[1]; pH 3.0, LAE 5 ppm
  amount of growth (normalized) to control: 101%
[1]; pH 3.0, LAE 7.5 ppm
  amount of growth (normalized) to control: 96%
[1]; pH 3.0, LAE 10 ppm
  amount of growth (normalized) to control: 102%
[1]; pH 3.0, LAE 15 ppm
  amount of growth (normalized) to control: 94%
[1]; pH 3.5, LAE 2.5 ppm
  amount of growth (normalized) to control: 96%
[1]; pH 3.5, LAE 5 ppm
  amount of growth (normalized) to control: 106%
[1]; pH 3.5, LAE 7.5 ppm
  amount of growth (normalized) to control: 110%
[1]; pH 3.5, LAE 10 ppm
  amount of growth (normalized) to control: 114%
[1]; pH 3.5, LAE 15 ppm
  amount of growth (normalized) to control: 118%
[1]; pH 4.0, LAE 2.5 ppm
  amount of growth (normalized) to control: 115%
[1]; pH 4.0, LAE 5 ppm
  amount of growth (normalized) to control: 125%
[1]; pH 4.0, LAE 7.5 ppm
  amount of growth (normalized) to control: 124%
[1]; pH 4.0, LAE 10 ppm
  amount of growth (normalized) to control: 124%
[1]; pH 4.0, LAE 15 ppm
  amount of growth (normalized) to control: 131%
[1]; [3]
  QLAE* (quantity of LAE alone required for the end point): QLAE* 30
Brettanomyces nardensis; QLAE 15, QCA 0
  QA/Qa + QB/Qb: 1.00
  QLAE/QLAE*: 1.00
  QNaB/QNAB*: 0.00
  log (QA/Qa + QB/Qb): 0.0000
Brettanomyces nardensis; pH 3.0, LAE 2.5 ppm
  amount of growth (normalized) to control: 89%
Brettanomyces nardensis; pH 3.0, LAE 5 ppm
  amount of growth (normalized) to control: 116%
Brettanomyces nardensis; pH 3.0, LAE 7.5 ppm
  amount of growth (normalized) to control: 90%
Brettanomyces nardensis; pH 3.0, LAE 10 ppm
  amount of growth (normalized) to control: 99%
Brettanomyces nardensis; pH 3.0, LAE 15 ppm
  amount of growth (normalized) to control: 0%
Brettanomyces nardensis; pH 3.5, LAE 2.5 ppm
  amount of growth (normalized) to control: 112%
Brettanomyces nardensis; pH 3.5, LAE 5 ppm
  amount of growth (normalized) to control: 86%
Brettanomyces nardensis; pH 3.5, LAE 7.5 ppm
  amount of growth (normalized) to control: 81%
Brettanomyces nardensis; pH 3.5, LAE 10 ppm
  amount of growth (normalized) to control: 57%
Brettanomyces nardensis; pH 3.5, LAE 15 ppm
  amount of growth (normalized) to control: 0%
Brettanomyces nardensis; pH 4.0, LAE 2.5 ppm
  amount of growth (normalized) to control: 109%
Brettanomyces nardensis; pH 4.0, LAE 5 ppm
  amount of growth (normalized) to control: 104%
Brettanomyces nardensis; pH 4.0, LAE 7.5 ppm
  amount of growth (normalized) to control: 97%
Brettanomyces nardensis; pH 4.0, LAE 10 ppm
  amount of growth (normalized) to control: 0%
Brettanomyces nardensis; pH 4.0, LAE 15 ppm
  amount of growth (normalized) to control: 0%
Brettanomyces nardensis; [3]
  QLAE* (quantity of LAE alone required for the end point): QLAE* 15
Saccharomyces cerevsiae; QLAE 32, QCA 0
  QA/Qa + QB/Qb: 1.00
  QLAE/QLAE*: 1.00
  QNaB/QNAB*: 0.00
  log (QA/Qa + QB/Qb): 0.0000
Saccharomyces cerevsiae; pH 3.0, LAE 2.5 ppm
  amount of growth (normalized) to control: 97%
Saccharomyces cerevsiae; pH 3.0, LAE 5 ppm
  amount of growth (normalized) to control: 97%
Saccharomyces cerevsiae; pH 3.0, LAE 7.5 ppm
  amount of growth (normalized) to control: 86%
Saccharomyces cerevsiae; pH 3.0, LAE 10 ppm
  amount of growth (normalized) to control: 94%
Saccharomyces cerevsiae; pH 3.0, LAE 15 ppm
  amount of growth (normalized) to control: 42%
Saccharomyces cerevsiae; pH 3.5, LAE 2.5 ppm
  amount of growth (normalized) to control: 103%
Saccharomyces cerevsiae; pH 3.5, LAE 5 ppm
  amount of growth (normalized) to control: 104%
Saccharomyces cerevsiae; pH 3.5, LAE 7.5 ppm
  amount of growth (normalized) to control: 93%
Saccharomyces cerevsiae; pH 3.5, LAE 10 ppm
  amount of growth (normalized) to control: 105%
Saccharomyces cerevsiae; pH 3.5, LAE 15 ppm
  amount of growth (normalized) to control: 57%
Saccharomyces cerevsiae; pH 4.0, LAE 2.5 ppm
  amount of growth (normalized) to control: 101%
Saccharomyces cerevsiae; pH 4.0, LAE 5 ppm
  amount of growth (normalized) to control: 96%
Saccharomyces cerevsiae; pH 4.0, LAE 7.5 ppm
  amount of growth (normalized) to control: 91%
Saccharomyces cerevsiae; pH 4.0, LAE 10 ppm
  amount of growth (normalized) to control: 90%
Saccharomyces cerevsiae; pH 4.0, LAE 15 ppm
  amount of growth (normalized) to control: 79%
Saccharomyces cerevsiae; [3]
  QLAE* (quantity of LAE alone required for the end point): QLAE* 32
[2]
  concentration required to inhibit all seven bio-indicator strains: 0.16 mM
